Earlier results, collected in patent US20230243813A1, “METHODS FOR SELECTING AND TREATING CANCER WITH FGFR3 INHIBITORS” (GENECENTRIC THERAPEUTICS, INC., priority 2020, published 2023).
Like-named read-outs stand apart in the source and are kept apart here.

Tested on: bladder cancer cell lines
Conditions: GDSC1/GDSC2 IC50 data, RNA-seq and Affymetrix U219 expression, FAS-1 to FAS-4 scores

Compound | sensitivity (IC50) of samples identified as altered by the FAS classifiers | sensitivity (IC50) of samples identified as altered by the FAS classifiers (listed as BIBF)
COc1cc2c(Oc3ccc(NC(=O)C4(C(=O)Nc5ccc(F)cc5)CC4)cc3F)ccnc2cc1OCCCN1CCOCC1 [foretinib, Foretinib] | showed samples with sensitivity | 
COC(=O)c1ccc2c(c1)NC(=O)/C2=C(\Nc1ccc(N(C)C(=O)CN2CCN(C)CC2)cc1)c1ccccc1 [BIBF 1120, nintedanib] | high sensitivity | showed samples with sensitivity
